Data set [1] has as its system C2C12 myoblast cells. The settings on record: day four of compound treatment.
Data set [2] deals with C2C12 myoblasts cells. As to conditions: at the effective concentration (0.5-5 μM). Here is the method: After four days of treatment with reversine, the compound was removed and cells were then grown in osteogenic differentiation medium (ODM) or adipogenic differentiation medium (ADM).

Take `c1nc2nc(Nc3ccc(N4CCOCC4)cc3)nc(NC3CCCCC3)c2[nH]1` [Compound A, 2-(4-Morpholinoanilino)-6-cyclohexylamino-purine]: the myotube formation result in data set [1] (5 μM) is listed as “completely inhibited”. For the same molecule, the “myogenic specific markers such as MyoD and myosin” value in data set [1] was “began to disappear”. Further, the cell death result in data set [2] is “no significant cell death”.

For the origin of these results see patent US7951592B2, “Compositions and methods for inducing cell dedifferentiation” (The Scripps Research Institute, priority 2003, dated 2011).
